Laboratory results from patent publication US11820756B2, “Bradykinin B2 receptor antagonists” (Pharvaris Netherlands B.V., priority 2017, dated 2023).

Tests used:
[1] = biological target: T1, human bradykinin B2 receptor (hB2R) (Homo sapiens, UniProt P30411); experiment: cell-based human bradykinin B2 receptor calcium mobilization (hB2R-CaM) assay; conditions: for IC50: HTS041C cells, bradykinin at EC80, calcium mobilization, read-out: IC50-value towards human bradykinin B2 receptor (hB2R)
T1 sequence (P30411 1-391): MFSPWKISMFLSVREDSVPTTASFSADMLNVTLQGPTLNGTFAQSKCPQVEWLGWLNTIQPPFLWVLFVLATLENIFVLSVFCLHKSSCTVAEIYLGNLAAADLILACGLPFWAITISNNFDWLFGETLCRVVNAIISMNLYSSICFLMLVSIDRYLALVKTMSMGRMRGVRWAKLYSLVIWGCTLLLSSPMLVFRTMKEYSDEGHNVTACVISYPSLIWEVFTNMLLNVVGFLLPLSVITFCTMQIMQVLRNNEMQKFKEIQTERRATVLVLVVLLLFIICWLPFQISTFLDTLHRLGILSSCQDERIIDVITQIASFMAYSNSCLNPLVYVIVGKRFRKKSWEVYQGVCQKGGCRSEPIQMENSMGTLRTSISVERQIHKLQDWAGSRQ
In short: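 HTS041C cells stably expressing hB2R were serum-reduced, loaded with Calcium 6 dye and pre-incubated with compound (8-point, n=2, 0.1% DMSO) for 25 min at 37° C. Bradykinin was then added at EC80. IC50 came from a 4-parameter logistic fit of the max-min fluorescence signal (485/525 nm).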

[2] = Caco-2 cell permeability assay (efflux ratio); assay type: in vitro ADME, human; conditions: human, Caco-2, Papp B to A/Papp A to AB, differentiated Caco-2 cell monolayer; read-out: Caco-2 BA/AB (efflux ratio)
Description: (§1) The permeability of the test compounds was determined with a Caco-2 cell permeability assay according to Hubatsch I. et al (Nat. Protoc. 2007, 2 (9), 2111-2119).
(§2) The Caco-2 cell line is a continuous cell of heterogeneous human epithelial colorectal adenocarcinoma cells. When cultured as a confluent monolayer on a permeable support such as a cell culture insert filter, the cells differentiate to form a polarized epithelial cell monolayer that provides a physical and biochemical barrier to the passage of ions and small molecules. In form of the confluent monolayer, the Caco-2 cells serve in the pharmaceutical industry as a well established in vitro model of the human small intestinal mucosa to predict the absorption of orally administered drugs. Assessing transport in both directions (apical to basolateral (A-B) and basolateral to apical (B-A)) across the cell monolayer enables an efflux ratio to be determined which provides an indicator as to whether a compound undergoes active efflux. […] As will be appreciated, active efflux substantially compromises oral bioavailability.

[3] = metabolic stability assay in rat liver microsomes; assay type: in vitro ADME; conditions: for microsomal CLint at 1 μM: pH 7.4, male Wistar rat liver microsomes, 0.5 mg protein/mL, 1 μM test compound, NADPH
Description: Hepatic clearance is the most important drug elimination mechanism in the body and many marketed compounds are cleared by hepatic cytochrome P450-mediated metabolism. The excretion or elimination property of the test compounds was determined with a metabolic stability assay according to Obach R S (Drug Metab. Dispos. 1999, 27(11), 1350-1359).
Assays were performed in 96-deepwell-plates using liver microsomes pooled from male Wistar rats (Corning). Rat liver microsomal incubations were conducted in duplicate and incubation mixtures consisted of liver microsomes (0.5 mg microsomal protein/mL), test compound (1 μM), MgCl2 (2 mM), and NADPH (1 mM) in a total volume of 0.7 ml sodium phosphate buffer (100 mM, pH 7.4). Reactions were commenced with the addition of NADPH and shaken on a horizontal shaker with a fitted heating block at 37° C. At t=0 min and the time points: 10 min, 30 min and 60 min; aliquots (70 μL) were removed from the incubations and added to 140 μl termination mixtures. Termination mixtures consisted of acetonitrile supplemented with diazepam, diclofenac and griseofulvin as internal analytical standards. The quenched samples were processed by mixing and centrifugation (2,200×g, 5 minutes). The particle free supernatant was diluted 1+1 with deionised water and subsequently subjected to LC-MS for quantitative bioanalysis in terms of test compound depletion (pump flow rate: 600 μL/min; Kinetex Phenyl-Hexyl analytical column 2.6 μm, 50×2.1 mm (Phenomenex, Germany)). Incubations containing verapamil at a concentration of 1 μM were used as high clearance positive control (PC; n=2), and incubations without NADPH (70 μl phosphate buffer (supplemented with 2 mM MgCl2) instead of 70 μL NADPH solution), in order to verify that any apparent loss of test item in the assay incubation was due to metabolism, were used as negative control (NC; n=2).
Clint data allow to predict the hepatic clearance in vivo, or, in other words, can be used as an indicator for the half life of a compound in vivo and its oral bioavailability. Highly cleared compounds are generally considered to be unfavourable as they are rapidly cleared in vivo resulting in a short duration of action. Said another way, a lower in vitro intrinsic clearance is usually indicative of a longer half life in vivo and of a better oral bioavailability.

[4] = system: differentiated Caco-2 cell monolayer; experiment: Caco-2 cell permeability assay (efflux ratio); assay type: in vitro ADME, human; conditions: Papp B to A/Papp A to AB
Description: as §1, §2

SMILES: Cc1cc(-n2cc(F)cn2)c2cccc(OCc3c(Cl)cc(F)cc3[C@H](C)NC(=O)[C@H](C)O)c2n1 [Compound 13]
- IC50 [1]: 251 to 1000 nM
- fold improvement of relative IC50 as compared to Comparative Compound No. 169 ([1]; versus Comparative Compound No. 169): 7.5 fold
- fold improvement of relative IC50 as compared to Comparative Compound No. 172 ([1]; versus Comparative Compound No. 172): 3.8 fold
- efflux ratio [2]: 0.6
- microsomal CLint at 1 μM [3]: 13 µL/min/mg

SMILES: Cc1cc(-n2cc(F)cn2)c2cccc(OCc3c(Cl)cncc3C(C)NC(=O)[C@@H](C)O)c2n1 (stereo partly shown) [compound 170]
- Caco-2 BA/AB (efflux ratio) [4]: 2.9
- efflux ratio [2]: > 2
- microsomal CLint at 1 μM [3]: 329 µL/min/mg

SMILES: Cc1cc(-n2cc(F)cn2)c2cccc(OCc3c(Cl)cncc3C(C)NC(=O)[C@H](C)O)c2n1 (stereo partly shown) [compound 169]
- Caco-2 BA/AB (efflux ratio) [4]: 3.4
- efflux ratio [2]: > 2
- microsomal CLint at 1 μM [3]: 427 µL/min/mg

SMILES: Cc1cc(-n2cc(F)cn2)c2cccc(OCc3c(Cl)cccc3C(C)NC(=O)[C@@H](C)O)c2n1 (stereo partly shown) [compound 173, reference compound]
- efflux ratio [2]: 1.1
- microsomal CLint at 1 μM [3]: 132 µL/min/mg

SMILES: Cc1cc(-c2ncnn2C)c2cccc(OCc3c(Cl)cccc3C(C)NC(=O)COC(F)F)c2n1 (stereo not shown) [compound 174, reference compound]
- efflux ratio [2]: 1.3
- microsomal CLint at 1 μM [3]: 135 µL/min/mg

SMILES: [2H][C@@](C)(NC(=O)COC(F)F)c1cc(F)cc(Cl)c1COc1cccc2c(-c3ncnn3C)cc(C)nc12 [Compound 11, (S)—N-(1-deutero-1-(3-chloro-5-fluoro-2-((2-methyl-4-(1-methyl-1H-1,2,4-triazol-5-yl)quinolin-8-yloxy)methyl)phenyl)ethyl)-2-(difluoromethoxy)acetamide]
- IC50 [1]: ≤ 50 nM
- efflux ratio [2]: 1.3
- microsomal CLint at 1 μM [3]: 20 µL/min/mg

SMILES: Cc1cc(-c2ncnn2C)c2cccc(OCc3c(Cl)cncc3C(C)NC(=O)COC(F)F)c2n1 (stereo not shown) [compound 171]
- Caco-2 BA/AB (efflux ratio) [4]: 7.7

SMILES: Cc1cc(-n2cc(F)cn2)c2cccc(OCc3c(Cl)cccc3C(C)NC(=O)[C@H](C)O)c2n1 (stereo partly shown) [compound 172, reference compound]
- efflux ratio [2]: 1.6
- microsomal CLint at 1 μM [3]: 56 µL/min/mg

SMILES: Cc1cc(-c2ncnn2C)c2cccc(OCc3c(Cl)cc(F)cc3[C@H](C)NC(=O)COC(F)F)c2n1 [Compound 6, (S)—N-(1-(3-chloro-5-fluoro-2-((2-methyl-4-(1-methyl-1H-1,2,4-triazol-5-yl)quinolin-8-yloxy)methyl)phenyl)ethyl)-2-(difluoromethoxy)acetamide]
- IC50 [1]: ≤ 50 nM
- efflux ratio [2]: 1
- fold lower Clint as compared to Comparative Compound No. 171 ([3]; versus Comparative Compound No. 171): 17.8 fold
- fold lower Clint as compared to Comparative Compound No. 174 ([3]; versus Comparative Compound No. 174): 4.8 fold

SMILES: Cc1cc(-n2cc(F)cn2)c2cccc(OCc3c(Cl)cc(F)cc3[C@H](C)NC(=O)[C@@H](C)O)c2n1 [Compound 1, (R)—N—((S)-1-(3-chloro-5-fluoro-2-((4-(4-fluoro-1H-pyrazol-1-yl)-2-methylquinolin-8-yloxy)methyl)phenyl)ethyl)-2-hydroxypropanamide]
- IC50 [1]: 51 to 250 nM
- efflux ratio [2]: 0.7
- microsomal CLint at 1 μM [3]: 56 µL/min/mg
